Where “and” joins values, the source holds several entries; their conditions need not be identical. Equal entries are not always repeated. Toxic doses and inconclusive results are not listed. No stated cut-off is given here; in the data, active means T/C of 150% or more; inactive means T/C below 125%.
System: L1210 leukemia ip in BDF1 mice, survival T/C
Assay: NCI In Vivo Anticancer Drug Screen. Data for tumor model L1210 Leukemia (intraperitoneal) in B6D2F1 (BDF1) mice
Settings: endpoint: mean survival time, higher = longer survival
Summary of the method: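 Read-out is survival time, reported as the treated-group measurement over the vehicle-control measurement.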

[1] = dose: 100.0 mg/kg/injection, schedule: Q04DX003 (ip), vehicle: saline with Tween-80
[2] = dose: 200.0 mg/kg/injection, schedule: Q04DX003 (ip), vehicle: saline with Tween-80
[3] = dose: 100.0 mg/kg/injection, schedule: Q01DX001 (ip), vehicle: saline
[4] = dose: 200.0 mg/kg/injection, schedule: Q01DX001 (ip), vehicle: saline
[5] = dose: 400.0 mg/kg/injection, schedule: Q01DX001 (ip), vehicle: saline
[6] = dose: 100.0 mg/kg/injection, schedule: Q01DX009 (ip), vehicle: saline
[7] = dose: 200.0 mg/kg/injection, schedule: Q01DX009 (ip), vehicle: saline
[8] = dose: 25.0 mg/kg/injection, schedule: Q04DX003 (ip), vehicle: Klucel (hydroxypropylcellulose) (HPC)
[9] = dose: 50.0 mg/kg/injection, schedule: Q04DX003 (ip), vehicle: Klucel (hydroxypropylcellulose) (HPC)
[10] = dose: 100.0 mg/kg/injection, schedule: Q04DX003 (ip), vehicle: Klucel (hydroxypropylcellulose) (HPC)
[11] = dose: 400.0 mg/kg/injection, schedule: Q04DX003 (ip), vehicle: saline with Tween-80
[12] = dose: 100.0 mg/kg/injection, schedule: Q01DX001 (ip), vehicle: saline with Tween-80
[13] = dose: 200.0 mg/kg/injection, schedule: Q01DX001 (ip), vehicle: saline with Tween-80
[14] = dose: 400.0 mg/kg/injection, schedule: Q01DX001 (ip), vehicle: saline with Tween-80
[15] = dose: 50.0 mg/kg/injection, schedule: Q01DX001 (ip), vehicle: saline
[16] = dose: 100.0 mg/kg/injection, schedule: Q01DX001 (ip), vehicle: carboxymethylcellulose (CMC)
[17] = dose: 200.0 mg/kg/injection, schedule: Q01DX001 (ip), vehicle: carboxymethylcellulose (CMC)
[18] = dose: 400.0 mg/kg/injection, schedule: Q01DX001 (ip), vehicle: carboxymethylcellulose (CMC)

Measured: T/C

O=C(O)COc1ccc([N+](=O)[O-])cc1F
inactive: dose: 100.0 mg/kg/injection, schedule: Q04DX002 (ip), vehicle: other 102 % of control | dose: 200.0 mg/kg/injection, schedule: Q04DX002 (ip), vehicle: other 88 % of control | dose: 400.0 mg/kg/injection, schedule: Q04DX002 (ip), vehicle: other 91 % of control

CCCCCCCC(=O)Nc1cc2c3c(c1)CCCN3CCC2
inactive: dose: 50.0 mg/kg/injection, schedule: Q04DX003 (ip), vehicle: saline with Tween-80 103 % of control | [1] 97 % of control | [2] 103 % of control

NSc1ccc([N+](=O)[O-])cc1
inactive: dose: 12.5 mg/kg/injection, schedule: Q01DX001 (ip), vehicle: other 102 % of control | dose: 25.0 mg/kg/injection, schedule: Q01DX001 (ip), vehicle: other 97 % of control | dose: 50.0 mg/kg/injection, schedule: Q01DX001 (ip), vehicle: other 101 % of control | [3] 96 % of control | [4] 97 % of control | [5] 103 % of control

CCN(CC)CCNCCO
inactive: [6] 89 % of control | dose: 100.0 mg/kg/injection, schedule: Q04DX003 (ip), vehicle: saline 95 % of control | [7] 94 % of control | dose: 200.0 mg/kg/injection, schedule: Q04DX003 (ip), vehicle: saline 92 % of control | dose: 400.0 mg/kg/injection, schedule: Q01DX009 (ip), vehicle: saline 89 % of control | dose: 400.0 mg/kg/injection, schedule: Q04DX003 (ip), vehicle: saline 92 % of control

Cc1ccc(NC(=O)Nc2onc(C)c2C)c([N+](=O)[O-])c1
inactive: [8] 93 % of control | [9] 93 % of control | [10] 93 % of control and 88 % of control

COC(=O)C(N)CO (configuration not stated)
inactive: [1] 105 % of control | [2] 105 % of control | [11] 91 % of control

CN(C)Cc1ccccc1COC(=O)c1ccccc1
inactive: dose: 100.0 mg/kg/injection, schedule: Q04DX002 (ip), vehicle: Klucel (hydroxypropylcellulose) (HPC) 119 % of control | dose: 200.0 mg/kg/injection, schedule: Q04DX002 (ip), vehicle: Klucel (hydroxypropylcellulose) (HPC) 105 % of control | dose: 400.0 mg/kg/injection, schedule: Q04DX002 (ip), vehicle: Klucel (hydroxypropylcellulose) (HPC) 97 % of control

O=S1CCCO1 (configuration not stated)
inactive: dose: 4.7 mg/kg/injection, schedule: Q01DX009 (ip), vehicle: saline 100 % of control | dose: 9.4 mg/kg/injection, schedule: Q01DX009 (ip), vehicle: saline 96 % of control | dose: 18.8 mg/kg/injection, schedule: Q01DX009 (ip), vehicle: saline 93 % of control | dose: 75.0 mg/kg/injection, schedule: Q01DX001 (ip), vehicle: saline 98 % of control

CSCSCC(NS(=O)(=O)c1ccc(C)cc1)C(=O)O (configuration not stated)
inactive: dose: 100.0 mg/kg/injection, schedule: Q01DX009 (ip), vehicle: saline with Tween-80 109 % of control | [1] 107 % of control | dose: 200.0 mg/kg/injection, schedule: Q01DX009 (ip), vehicle: saline with Tween-80 109 % of control | [2] 96 % of control | dose: 400.0 mg/kg/injection, schedule: Q01DX009 (ip), vehicle: saline with Tween-80 104 % of control | [11] 105 % of control

CCC(=O)OCc1cc2ccccc2c(-c2c(OC(=O)CC)c(COC(=O)CC)cc3ccccc23)c1OC(=O)CC
inactive: [12] 106 % of control | [13] 113 % of control | [14] 88 % of control

O=C1CN=C(c2ccccc2Cl)c2cc(Cl)ccc2N1
inactive: dose: 12.5 mg/kg/injection, schedule: Q01DX009 (ip), vehicle: Klucel (hydroxypropylcellulose) (HPC) 114 % of control | dose: 25.0 mg/kg/injection, schedule: Q01DX009 (ip), vehicle: Klucel (hydroxypropylcellulose) (HPC) 95 % of control | [8] 100 % of control | dose: 50.0 mg/kg/injection, schedule: Q01DX009 (ip), vehicle: Klucel (hydroxypropylcellulose) (HPC) 106 % of control | [9] 105 % of control | dose: 100.0 mg/kg/injection, schedule: Q01DX009 (ip), vehicle: Klucel (hydroxypropylcellulose) (HPC) 97 % of control | [10] 100 % of control | dose: 200.0 mg/kg/injection, schedule: Q01DX009 (ip), vehicle: Klucel (hydroxypropylcellulose) (HPC) 103 % of control | dose: 200.0 mg/kg/injection, schedule: Q04DX003 (ip), vehicle: Klucel (hydroxypropylcellulose) (HPC) 120 % of control

O=C(Nc1cc(C(F)(F)F)cc(C(F)(F)F)c1)Nc1ccc(Oc2ccccc2Cl)c(S(=O)(=O)O)c1
inactive: dose: 100.0 mg/kg/injection, schedule: Q04DX003 (ip), vehicle: saline sonified 117 % of control | dose: 200.0 mg/kg/injection, schedule: Q04DX003 (ip), vehicle: saline sonified 115 % of control | dose: 400.0 mg/kg/injection, schedule: Q04DX003 (ip), vehicle: saline sonified 121 % of control

CNc1nc[nH]c(=O)c1NC(=O)c1ccccc1
inactive: dose: 45.0 mg/kg/injection, schedule: Q01DX001 (ip), vehicle: Klucel (hydroxypropylcellulose) (HPC) 103 % of control | dose: 90.0 mg/kg/injection, schedule: Q01DX001 (ip), vehicle: Klucel (hydroxypropylcellulose) (HPC) 95 % of control | dose: 180.0 mg/kg/injection, schedule: Q01DX001 (ip), vehicle: Klucel (hydroxypropylcellulose) (HPC) 92 % of control

CC(=O)Nc1ccc(OC(=O)Oc2ccc(NC(C)=O)cc2)cc1
inactive: [15] 101 % of control | [3] 97 % of control | [4] 95 % of control | [5] 95 % of control

CC1CCOCO1 (configuration not stated)
inactive: dose: 50.0 mg/kg/injection, schedule: Q01DX001 (ip), vehicle: carboxymethylcellulose (CMC) 98 % of control | [16] 98 % of control | [17] 95 % of control | [18] 95 % of control

CC1(C)CCc2cc(C(=O)O)ccc2O1
inactive: [15] 100 % of control | [3] 100 % of control | [4] 103 % of control | [5] 100 % of control

O=C1C=CC(=O)C2C1C1(Cl)CC2(Cl)C(Cl)=C1Cl (configuration not stated)
inactive: dose: 6.25 mg/kg/injection, schedule: Q04DX002 (ip), vehicle: Klucel (hydroxypropylcellulose) (HPC) 100 % of control | dose: 12.5 mg/kg/injection, schedule: Q04DX002 (ip), vehicle: Klucel (hydroxypropylcellulose) (HPC) 95 % of control | dose: 25.0 mg/kg/injection, schedule: Q04DX002 (ip), vehicle: Klucel (hydroxypropylcellulose) (HPC) 100 % of control and 108 % of control

Cc1nc(N)[nH]c(=O)c1CCCNS(=O)(=O)c1ccccc1
inactive: dose: 50.0 mg/kg/injection, schedule: Q01DX001 (ip), vehicle: Klucel (hydroxypropylcellulose) (HPC) 105 % of control | dose: 100.0 mg/kg/injection, schedule: Q01DX001 (ip), vehicle: Klucel (hydroxypropylcellulose) (HPC) 94 % of control | dose: 200.0 mg/kg/injection, schedule: Q01DX001 (ip), vehicle: Klucel (hydroxypropylcellulose) (HPC) 90 % of control

Nc1cccc2cccc([N+](=O)[O-])c12
inactive: [16] 100 % of control | [6] 87 % of control | [17] 94 % of control | [7] 94 % of control | [18] 96 % of control

CCCCC(C)(O)c1cc(OC)cc(OC)c1 (configuration not stated)
inactive: [12] 104 % of control | [13] 97 % of control | [14] 87 % of control

O=C(Cl)C1C(c2ccccc2)C1c1ccccc1 (configuration not stated)
inactive: [1] 106 % of control

— PubChem BioAssay AID248 (DTP/NCI, 2004)
